From ChEMBL document CHEMBL6078646, “Target Ligand Separation and Identification of Isoforsythiaside as a Histone Lysine-Specific Demethylase 1 Covalent Inhibitor Against Breast Cancer Metastasis” (J Med Chem, 2024)
The source made the active and inactive calls. The rule behind the calls is not given here.

Columns and labels:
[1] = target: T1, Lysine-specific histone demethylase 1A (Homo sapiens, UniProt O60341); assay: Inhibition of LSD1 (unknown origin) activity measured after 80-fold dilution by dilution assay
[2] = Toxicity in female Balb/c nude mouse xenografted with human MDA-MB-231 cells expressing luciferase assessed as appearance of heart lesions at 12 to 50 mg/kg, ip administered every 3 days and measured after 30 days by H and E staining based analysis; type: organism-based; conditions: in vivo, 720 h, dose 12-50 mg/kg, time 30 day
[3] = Toxicity in female Balb/c mouse assessed as histological changes in lung at 50 mg/kg, ip administered every other day for 7 times by H and E staining based analysis; type: organism-based; conditions: in vivo
[4] = target: T1, Lysine-specific histone demethylase 1A; assay: Inhibition of recombinant His-tagged LSD1 (157 to 852 residues) (unknown origin) expressed in Escherichia coli BL21 (DE3) cells using H3K4me2 peptide as substrate incubated for 30 mins by fluorescence microplate reader analysis
MDA-MB-231 [5] = assay: Effect on LSD1 protein expression in human MDA-MB-231 cells at 4 to 32 uM by Western blot analysis; type: functional, cell-based; conditions: dose 4-32 µM
[6] = target: T1, Lysine-specific histone demethylase 1A; assay: Inhibition of LSD1 (unknown origin) at 0.32 to 6.40 uM; conditions: dose 0.32-6.4 µM, time 0-25 min
MDA-MB-231 [7] = assay: Inhibition of cell migration in human MDA-MB-231 cells incubated for 24 hrs by phase contrast microscopy based wound healing assay; type: functional; conditions: dose 0-32 µM
[8] = Toxicity in female Balb/c mouse assessed as effect on granulocyte level at 50 mg/kg, ip administered every other day for 7 times; type: organism-based; conditions: in vivo
[9] = Toxicity in female Balb/c mouse assessed as effect on hemoglobin level at 50 mg/kg, ip administered every other day for 7 times; type: organism-based; conditions: in vivo

With C[C@@H]1O[C@H](OC[C@H]2O[C@@H](OCCc3ccc(O)c(O)c3)[C@H](O)[C@@H](OC(=O)/C=C/c3ccc(O)c(O)c3)[C@@H]2O)[C@H](O)[C@H](O)[C@H]1O the inhibition [1] was “Active; Compound Exerts Inhibition In An Irreversible Manner”, the Activity [2] was “Non-toxic” and the Activity [3] was “Non-toxic”. For the same molecule, the IC50 [4] was 1580 nM, the Activity (MDA-MB-231 [5]) was “inactive” and the inhibition [6] was “Time-dependent-effect”. For the same molecule, the inhibition (MDA-MB-231 [7]) was “Dose-dependent-effect”, the Activity [8] was “Non-toxic” and the Activity [9] was “Non-toxic”.
